{
  "source": "patent US20100137449A1",
  "about": "“SUBSTITUTED 1,3-CYCLOPENTADIONE MULTI-TARGET PROTEIN KINASE MODULATORS OF CANCER, ANGIOGENESIS AND THE INFLAMMATORY PATHWAYS ASSOCIATED THEREWITH” (METAPROTEOMICS, LLC, priority 2007, published 2010)",
  "test_in_all_cases": "KinaseProfiler Assay",
  "key": {"CHK2(I157T)(h)": {"biological_target": "CHK2(I157T)(h) (Homo sapiens, UniProt O96017, I157T)", "sequence (O96017 whole entry I157T)": "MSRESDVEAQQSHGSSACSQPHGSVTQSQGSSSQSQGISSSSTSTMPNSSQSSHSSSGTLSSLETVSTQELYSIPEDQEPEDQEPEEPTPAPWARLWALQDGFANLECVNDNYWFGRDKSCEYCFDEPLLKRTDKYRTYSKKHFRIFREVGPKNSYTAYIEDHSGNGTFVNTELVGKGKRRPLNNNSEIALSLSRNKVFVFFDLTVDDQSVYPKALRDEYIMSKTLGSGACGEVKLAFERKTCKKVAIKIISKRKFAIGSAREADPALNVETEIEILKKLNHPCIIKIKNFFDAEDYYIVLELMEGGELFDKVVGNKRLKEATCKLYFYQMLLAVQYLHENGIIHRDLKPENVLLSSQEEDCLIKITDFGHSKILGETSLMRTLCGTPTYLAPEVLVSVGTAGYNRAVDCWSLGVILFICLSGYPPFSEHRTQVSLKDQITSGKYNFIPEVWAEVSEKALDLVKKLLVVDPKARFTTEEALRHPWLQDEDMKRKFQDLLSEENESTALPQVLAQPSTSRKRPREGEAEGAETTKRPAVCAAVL"}, "Lck(h)": {"biological_target": "Lck(h) (Homo sapiens, UniProt P06239)", "sequence (P06239 whole entry)": "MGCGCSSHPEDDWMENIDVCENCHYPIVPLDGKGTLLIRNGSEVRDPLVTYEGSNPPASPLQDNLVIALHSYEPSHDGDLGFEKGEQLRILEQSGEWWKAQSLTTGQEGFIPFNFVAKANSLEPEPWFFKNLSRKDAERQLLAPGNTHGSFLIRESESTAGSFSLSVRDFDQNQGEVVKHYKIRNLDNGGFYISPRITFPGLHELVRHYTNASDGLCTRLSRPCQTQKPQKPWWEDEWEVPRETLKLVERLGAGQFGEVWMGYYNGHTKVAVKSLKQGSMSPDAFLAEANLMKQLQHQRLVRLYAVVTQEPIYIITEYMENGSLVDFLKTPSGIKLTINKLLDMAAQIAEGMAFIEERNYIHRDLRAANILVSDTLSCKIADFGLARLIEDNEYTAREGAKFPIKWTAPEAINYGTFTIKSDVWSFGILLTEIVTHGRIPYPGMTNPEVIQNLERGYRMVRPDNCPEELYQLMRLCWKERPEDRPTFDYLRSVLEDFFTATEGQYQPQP"}, "MuSK(h)": {"biological_target": "T1, MuSK(h) (Homo sapiens, UniProt O15146)", "T1 sequence (O15146 24-869)": "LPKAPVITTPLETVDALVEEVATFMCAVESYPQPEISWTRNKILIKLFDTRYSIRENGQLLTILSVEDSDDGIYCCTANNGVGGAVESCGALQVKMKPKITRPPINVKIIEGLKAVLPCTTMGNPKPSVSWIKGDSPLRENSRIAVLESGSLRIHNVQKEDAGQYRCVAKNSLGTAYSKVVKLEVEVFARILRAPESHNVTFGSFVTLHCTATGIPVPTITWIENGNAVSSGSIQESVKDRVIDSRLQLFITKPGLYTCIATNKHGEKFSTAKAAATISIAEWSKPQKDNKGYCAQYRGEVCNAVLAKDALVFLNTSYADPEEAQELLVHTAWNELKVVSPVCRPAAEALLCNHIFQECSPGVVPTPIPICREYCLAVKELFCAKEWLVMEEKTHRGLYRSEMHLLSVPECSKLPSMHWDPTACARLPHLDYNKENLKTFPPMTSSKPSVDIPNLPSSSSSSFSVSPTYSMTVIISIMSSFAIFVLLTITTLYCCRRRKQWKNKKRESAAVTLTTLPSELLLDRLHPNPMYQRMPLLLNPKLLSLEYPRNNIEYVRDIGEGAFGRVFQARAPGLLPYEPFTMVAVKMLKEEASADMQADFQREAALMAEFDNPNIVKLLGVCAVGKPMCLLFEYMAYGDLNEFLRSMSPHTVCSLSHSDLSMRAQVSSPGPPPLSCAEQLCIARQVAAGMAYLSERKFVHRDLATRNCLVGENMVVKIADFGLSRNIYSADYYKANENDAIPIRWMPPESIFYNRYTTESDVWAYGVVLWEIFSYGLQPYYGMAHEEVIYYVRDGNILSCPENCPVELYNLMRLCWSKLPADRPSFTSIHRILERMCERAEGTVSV"}, "PDGFRβ(h)": {"biological_target": "PDGFRβ(h) (Homo sapiens, UniProt P09619)", "sequence (P09619 33-1106)": "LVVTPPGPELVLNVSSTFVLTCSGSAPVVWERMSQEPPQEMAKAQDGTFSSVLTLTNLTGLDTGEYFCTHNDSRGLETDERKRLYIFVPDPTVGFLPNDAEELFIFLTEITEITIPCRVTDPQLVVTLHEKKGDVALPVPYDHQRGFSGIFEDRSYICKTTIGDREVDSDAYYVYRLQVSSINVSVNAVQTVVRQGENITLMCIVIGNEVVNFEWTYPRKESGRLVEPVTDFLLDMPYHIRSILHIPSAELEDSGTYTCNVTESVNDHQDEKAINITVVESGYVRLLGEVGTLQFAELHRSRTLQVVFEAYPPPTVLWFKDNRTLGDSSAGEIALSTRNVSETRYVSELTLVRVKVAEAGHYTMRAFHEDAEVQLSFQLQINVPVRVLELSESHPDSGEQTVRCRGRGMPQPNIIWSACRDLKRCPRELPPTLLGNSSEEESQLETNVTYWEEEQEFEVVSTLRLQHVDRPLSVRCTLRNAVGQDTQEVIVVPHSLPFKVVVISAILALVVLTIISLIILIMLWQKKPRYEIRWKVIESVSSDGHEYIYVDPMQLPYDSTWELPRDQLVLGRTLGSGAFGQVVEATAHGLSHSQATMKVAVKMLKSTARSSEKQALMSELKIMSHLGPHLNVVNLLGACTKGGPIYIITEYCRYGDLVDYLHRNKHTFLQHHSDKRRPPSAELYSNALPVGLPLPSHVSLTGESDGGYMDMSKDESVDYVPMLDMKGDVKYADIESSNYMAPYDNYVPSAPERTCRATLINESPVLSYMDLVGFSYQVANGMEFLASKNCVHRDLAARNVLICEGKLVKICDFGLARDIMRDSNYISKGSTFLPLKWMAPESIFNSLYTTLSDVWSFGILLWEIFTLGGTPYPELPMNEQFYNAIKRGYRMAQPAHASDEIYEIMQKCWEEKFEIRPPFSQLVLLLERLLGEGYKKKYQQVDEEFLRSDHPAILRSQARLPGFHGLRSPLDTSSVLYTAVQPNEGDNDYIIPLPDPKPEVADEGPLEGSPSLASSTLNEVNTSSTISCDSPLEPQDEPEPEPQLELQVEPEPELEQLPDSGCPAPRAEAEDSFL"}, "PI 3-Kinaseβ(h)": {"biological_target": "PI 3-Kinaseβ(h) (Homo sapiens, UniProt P42338)", "sequence (P42338 whole entry)": "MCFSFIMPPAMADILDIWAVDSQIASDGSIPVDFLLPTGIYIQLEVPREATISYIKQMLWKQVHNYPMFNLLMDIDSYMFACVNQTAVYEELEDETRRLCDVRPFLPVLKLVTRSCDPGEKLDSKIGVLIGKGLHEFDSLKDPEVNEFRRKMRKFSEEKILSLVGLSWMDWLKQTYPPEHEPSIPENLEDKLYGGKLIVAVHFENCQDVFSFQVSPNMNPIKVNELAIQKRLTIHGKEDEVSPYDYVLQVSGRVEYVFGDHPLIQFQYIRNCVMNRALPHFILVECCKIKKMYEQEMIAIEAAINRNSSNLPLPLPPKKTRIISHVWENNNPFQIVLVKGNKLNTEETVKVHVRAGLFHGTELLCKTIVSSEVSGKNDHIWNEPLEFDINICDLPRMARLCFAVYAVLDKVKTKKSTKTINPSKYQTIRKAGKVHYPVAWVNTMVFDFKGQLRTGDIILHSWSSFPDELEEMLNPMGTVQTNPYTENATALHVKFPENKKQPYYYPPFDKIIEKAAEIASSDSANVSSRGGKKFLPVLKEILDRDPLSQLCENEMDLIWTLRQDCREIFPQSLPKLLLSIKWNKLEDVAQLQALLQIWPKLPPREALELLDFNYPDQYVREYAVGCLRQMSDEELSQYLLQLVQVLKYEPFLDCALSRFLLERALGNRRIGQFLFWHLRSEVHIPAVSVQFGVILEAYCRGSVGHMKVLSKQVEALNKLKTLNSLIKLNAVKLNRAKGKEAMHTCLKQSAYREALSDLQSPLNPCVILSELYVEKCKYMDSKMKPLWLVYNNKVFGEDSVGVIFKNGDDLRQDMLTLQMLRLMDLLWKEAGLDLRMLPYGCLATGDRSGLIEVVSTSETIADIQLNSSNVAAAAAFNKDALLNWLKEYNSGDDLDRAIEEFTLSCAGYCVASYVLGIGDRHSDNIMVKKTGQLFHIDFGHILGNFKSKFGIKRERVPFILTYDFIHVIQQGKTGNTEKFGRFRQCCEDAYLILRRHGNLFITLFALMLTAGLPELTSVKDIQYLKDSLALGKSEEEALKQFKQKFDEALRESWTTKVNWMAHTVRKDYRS", "sequence (P27986 whole entry partner)": "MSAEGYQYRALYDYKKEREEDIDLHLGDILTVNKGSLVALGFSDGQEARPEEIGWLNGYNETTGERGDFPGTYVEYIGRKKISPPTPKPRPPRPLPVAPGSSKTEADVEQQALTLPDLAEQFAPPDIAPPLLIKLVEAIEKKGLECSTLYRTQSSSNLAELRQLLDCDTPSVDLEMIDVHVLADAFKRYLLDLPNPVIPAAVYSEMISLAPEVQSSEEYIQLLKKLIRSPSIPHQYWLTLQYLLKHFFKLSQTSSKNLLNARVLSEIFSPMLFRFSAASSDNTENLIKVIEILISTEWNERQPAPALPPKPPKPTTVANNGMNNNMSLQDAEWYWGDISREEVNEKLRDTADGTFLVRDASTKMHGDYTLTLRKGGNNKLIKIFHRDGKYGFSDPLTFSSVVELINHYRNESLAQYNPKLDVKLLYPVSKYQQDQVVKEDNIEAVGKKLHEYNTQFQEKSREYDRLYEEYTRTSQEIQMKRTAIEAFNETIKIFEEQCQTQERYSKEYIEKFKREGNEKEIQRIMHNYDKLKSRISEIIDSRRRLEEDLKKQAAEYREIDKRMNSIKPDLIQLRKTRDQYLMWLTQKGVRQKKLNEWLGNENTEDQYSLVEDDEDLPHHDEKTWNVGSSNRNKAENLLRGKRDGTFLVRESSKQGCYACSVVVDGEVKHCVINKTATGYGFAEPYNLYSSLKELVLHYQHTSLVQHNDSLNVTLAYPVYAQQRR"}, "PRAK(h)": {"biological_target": "T2, PRAK(h) (Homo sapiens, UniProt Q8IW41)", "T2 sequence (Q8IW41 1-473)": "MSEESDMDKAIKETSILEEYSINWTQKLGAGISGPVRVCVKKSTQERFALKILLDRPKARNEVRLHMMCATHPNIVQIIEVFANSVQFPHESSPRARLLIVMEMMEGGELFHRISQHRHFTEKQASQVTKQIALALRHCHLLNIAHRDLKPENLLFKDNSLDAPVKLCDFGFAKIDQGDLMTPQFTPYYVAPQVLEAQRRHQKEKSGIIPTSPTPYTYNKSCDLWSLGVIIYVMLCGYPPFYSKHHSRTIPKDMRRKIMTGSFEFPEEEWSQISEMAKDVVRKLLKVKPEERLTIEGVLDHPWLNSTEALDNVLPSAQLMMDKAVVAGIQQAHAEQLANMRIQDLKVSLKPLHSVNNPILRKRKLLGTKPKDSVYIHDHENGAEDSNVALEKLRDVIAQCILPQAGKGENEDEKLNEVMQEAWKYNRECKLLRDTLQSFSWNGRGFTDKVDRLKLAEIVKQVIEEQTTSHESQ"}},
  "data": [
    {"smiles": "CC(C)CCC(=O)[C@]1(O)C(O)=C(C(=O)C(C)C)C(=O)[C@H]1CCC(C)C", "note": "[TH2, tetrahydroiso-cohumulone]", "values": [
      {"measurement": "kinase inhibition", "setting": "CHK2(I157T)(h); 1 μg/ml", "value": "108% of control"},
      {"measurement": "kinase inhibition", "setting": "CHK2(I157T)(h); 5 μg/ml", "value": "104% of control"},
      {"measurement": "kinase inhibition", "setting": "CHK2(I157T)(h); 25 μg/ml", "value": "94% of control"},
      {"measurement": "kinase inhibition", "setting": "CHK2(I157T)(h); 50 μg/ml", "value": "83% of control"},
      {"measurement": "kinase inhibition", "setting": "CHK2(I157T)(h); 100 μg/ml", "value": "74% of control"},
      {"measurement": "kinase inhibition", "setting": "Lck(h); 1 μg/ml", "value": "106% of control"},
      {"measurement": "kinase inhibition", "setting": "Lck(h); 5 μg/ml", "value": "111% of control"},
      {"measurement": "kinase inhibition", "setting": "Lck(h); 25 μg/ml", "value": "86% of control"},
      {"measurement": "kinase inhibition", "setting": "Lck(h); 50 μg/ml", "value": "83% of control"},
      {"measurement": "kinase inhibition", "setting": "Lck(h); 100 μg/ml", "value": "78% of control"},
      {"measurement": "kinase inhibition", "setting": "MuSK(h); 1 μg/ml", "value": "104% of control"},
      {"measurement": "kinase inhibition", "setting": "MuSK(h); 5 μg/ml", "value": "101% of control"},
      {"measurement": "kinase inhibition", "setting": "MuSK(h); 25 μg/ml", "value": "99% of control"},
      {"measurement": "kinase inhibition", "setting": "MuSK(h); 50 μg/ml", "value": "98% of control"},
      {"measurement": "kinase inhibition", "setting": "MuSK(h); 100 μg/ml", "value": "97% of control"},
      {"measurement": "kinase inhibition", "setting": "PDGFRβ(h); 1 μg/ml", "value": "111% of control"},
      {"measurement": "kinase inhibition", "setting": "PDGFRβ(h); 5 μg/ml", "value": "110% of control"},
      {"measurement": "kinase inhibition", "setting": "PDGFRβ(h); 25 μg/ml", "value": "53% of control"},
      {"measurement": "kinase inhibition", "setting": "PDGFRβ(h); 50 μg/ml", "value": "50% of control"},
      {"measurement": "kinase inhibition", "setting": "PDGFRβ(h); 100 μg/ml", "value": "44% of control"},
      {"measurement": "kinase inhibition", "setting": "PI 3-Kinaseβ(h); 1 μg/ml", "value": "99% of control"},
      {"measurement": "kinase inhibition", "setting": "PI 3-Kinaseβ(h); 5 μg/ml", "value": "95% of control"},
      {"measurement": "kinase inhibition", "setting": "PI 3-Kinaseβ(h); 25 μg/ml", "value": "75% of control"},
      {"measurement": "kinase inhibition", "setting": "PI 3-Kinaseβ(h); 50 μg/ml", "value": "47% of control"},
      {"measurement": "kinase inhibition", "setting": "PI 3-Kinaseβ(h); 100 μg/ml", "value": "28% of control"},
      {"measurement": "kinase inhibition", "setting": "PRAK(h); 1 μg/ml", "value": "66% of control"},
      {"measurement": "kinase inhibition", "setting": "PRAK(h); 5 μg/ml", "value": "45% of control"},
      {"measurement": "kinase inhibition", "setting": "PRAK(h); 25 μg/ml", "value": "19% of control"},
      {"measurement": "kinase inhibition", "setting": "PRAK(h); 50 μg/ml", "value": "24% of control"},
      {"measurement": "kinase inhibition", "setting": "PRAK(h); 100 μg/ml", "value": "19% of control"}
    ]}
  ]
}
